Assay results taken from patent US20230346816A1, “COMPOUNDS AND METHODS FOR TREATING VIRAL INFECTION” (priority 2020, published 2023).

How the values were obtained:
[1] = test system: COVID-19; experiment: Prospective observational cohort study of NAG in hospitalized COVID-19 patients vs retrospective control arm; format: in vivo
[2] = test system: IL-6; experiment: Gene expression analysis (quantitative PCR) of IL-6 in primary human chondrocytes; format: cell-based; details: IL-1β, 1 or 10 mM, 24 hrs, FIG. 3
Method: (§1) Normal cartilage were obtained from autopsy services at the hospital of University of Virginia, approved by the Institutional Review Board. Articular cartilage were harvested from the femoral condyles and the tibial plateaus. Cartilage shavings were harvested at the operation room and placed in tissue culture medium (DMEM, 10% FBS, penicillin, streptomycin), and shipped to the laboratory at 4° C. Chondrocytes were isolated by incubation of the cartilage fragments with 0.01% collagenase NB4 (Fisher Scientific, Catalog No. 50-204-1257) for 4 hrs at 37° C. Cells were maintained in continuous monolayer cultures in DMEM containing 10% FBS. Experiments were performed with cells less than 3 passages. When necessary, trypsin were used for cell passage.
(§2) Cells, as prepared in the MATERIALS section, were seeded in a 24-well plate (3×10^5/well) and incubated with culture medium overnight. Cells were then treated with Compound 2 at various concentrations in DMEM containing 2% FBS (1 or 10 mM) for 24 hrs. […] Synthesis of cDNA from total RNA and the quantitative PCR were carried out by using the iscript™ cDNA synthesis kit and the iQ™ SYBR Green Supermix kit (Bio-Rad Laboratories, Hercules, CA), respectively. […] The threshold cycle (CT) value were calculated from amplification plots. Data were analyzed using the 2-ΔΔCT method with 18s rRNA serving as the reference. […]

[3] = test system: COX-2; experiment: Gene expression analysis (quantitative PCR) of COX-2 in primary human chondrocytes; format: cell-based; details: IL-1β, 1 or 10 mM, 24 hrs, FIG. 4
Method: as §1, §2

[4] = NAG (n = 48) vs control (n = 100), univariate
[5] = multiple logistic regression, NAG (ref = control)

In the case of CC(=O)N[C@@H]1[C@@H](O)[C@H](O)[C@@H](CO)O[C@H]1O [NAG, N-((2R,3R,4R,5S,6R)-2,4,5-trihydroxy-6-(hydroxymethyl)-tetrahydro-2H-pyran-3-yl)acetamide], the “Intubation, %” value ([1]; 700 mg NAG every 12 hours plus standard of care, NAG group n = 48) is reported as “(16.7%)”, the “ICU admission, odds ratio” value [1, 4] is reported as 0.53 and the “Mortality, odds ratio” value [1, 4] is reported as 0.37. For the same compound, the “Poor clinical outcome, odds ratio” value [1, 4] was 0.30, the “Intubation, odds ratio” value ([1]; NAG (n = 48) vs control (n = 100), univariate, Fisher's exact test) was 0.60 and the “Hospital LOS, Hodges-Lehmann difference” value ([1]; NAG (n = 48) vs control (n = 100), univariate, Mann-Whitney U test) was 0.0. For the same compound, the “ICU admission, %” value ([1]; NAG group n = 48) was “(22.9%)”, the “Poor clinical outcome (combined death/hospice initiation), %” value ([1]; NAG group n = 48) was “(12.5%)” and the “Hospital LOS, median” value ([1]; NAG group n = 48, median (IQR) [range]) was 7. The “Hospice initiation, %” value ([1]; excludes patients that died, NAG n = 42) was “(0%)”, the “Hospice initiation, odds ratio” value ([1]; excludes patients that died, NAG n = 42 vs control n = 72, univariate) was 0.00 and the “ICU admission, odds ratio (multivariate)” value [1, 5] was 0.32. For the same compound, the “Poor clinical outcome rate, odds ratio (multivariate)” value [1, 5] was 0.30, the “Hospital length of stay, β-coefficient” value ([1]; multivariate linear regression, NAG (ref = control)) was −4.27 and the “ICU LOS, median” value ([1]; only patients admitted to the ICU, NAG n = 10) was 2.5. For the same compound, the “ICU LOS, Hodges-Lehmann difference” value ([1]; only patients admitted to the ICU, NAG n = 10 vs control n = 36, univariate) was 4.0, the “Duration of oxygen, Hodges-Lehmann difference” value ([1]; only patients that required oxygen support, NAG n = 46 vs control n = 86, univariate) was 0.0 days and the “Difference between control and NAG groups for intubation rates, hospital LOS, ICU admission, ICU LOS, duration of oxygen use, or hospice initiation” value ([1]; univariate analysis) was “no significant differences”.

For CC(=O)N[C@H]1[C@H](O)O[C@H](C)C[C@@H]1O [Cpd 2, 2-(acetylamino)-2,4,6-trideoxy-β-D-glucopyranose], the “Expression of pro-inflammatory gene IL-6” value [2] was “dose-dependent inhibition” and the “Expression of pro-inflammatory gene COX-2” value [3] was “dose-dependent inhibition”.
